In patent US10435399B2, “HDAC6 inhibitory heterocyclic compound” (TAKEDA PHARMACEUTICAL COMPANY LIMITED, priority 2017, dated 2019) one finds inhibition data, which are given here for twelve compounds.

Molecules are shown by their SMILES.

For the test, the target named is T1, HDAC6 enzyme (Homo sapiens, UniProt Q9UBN7).
T1 construct: transducing full length HDAC6 gene into Sf-9 insect cells; GST; purchased SignalChem; host or cells: Sf-9 insect cells
T1 sequence (Q9UBN7 1-1215): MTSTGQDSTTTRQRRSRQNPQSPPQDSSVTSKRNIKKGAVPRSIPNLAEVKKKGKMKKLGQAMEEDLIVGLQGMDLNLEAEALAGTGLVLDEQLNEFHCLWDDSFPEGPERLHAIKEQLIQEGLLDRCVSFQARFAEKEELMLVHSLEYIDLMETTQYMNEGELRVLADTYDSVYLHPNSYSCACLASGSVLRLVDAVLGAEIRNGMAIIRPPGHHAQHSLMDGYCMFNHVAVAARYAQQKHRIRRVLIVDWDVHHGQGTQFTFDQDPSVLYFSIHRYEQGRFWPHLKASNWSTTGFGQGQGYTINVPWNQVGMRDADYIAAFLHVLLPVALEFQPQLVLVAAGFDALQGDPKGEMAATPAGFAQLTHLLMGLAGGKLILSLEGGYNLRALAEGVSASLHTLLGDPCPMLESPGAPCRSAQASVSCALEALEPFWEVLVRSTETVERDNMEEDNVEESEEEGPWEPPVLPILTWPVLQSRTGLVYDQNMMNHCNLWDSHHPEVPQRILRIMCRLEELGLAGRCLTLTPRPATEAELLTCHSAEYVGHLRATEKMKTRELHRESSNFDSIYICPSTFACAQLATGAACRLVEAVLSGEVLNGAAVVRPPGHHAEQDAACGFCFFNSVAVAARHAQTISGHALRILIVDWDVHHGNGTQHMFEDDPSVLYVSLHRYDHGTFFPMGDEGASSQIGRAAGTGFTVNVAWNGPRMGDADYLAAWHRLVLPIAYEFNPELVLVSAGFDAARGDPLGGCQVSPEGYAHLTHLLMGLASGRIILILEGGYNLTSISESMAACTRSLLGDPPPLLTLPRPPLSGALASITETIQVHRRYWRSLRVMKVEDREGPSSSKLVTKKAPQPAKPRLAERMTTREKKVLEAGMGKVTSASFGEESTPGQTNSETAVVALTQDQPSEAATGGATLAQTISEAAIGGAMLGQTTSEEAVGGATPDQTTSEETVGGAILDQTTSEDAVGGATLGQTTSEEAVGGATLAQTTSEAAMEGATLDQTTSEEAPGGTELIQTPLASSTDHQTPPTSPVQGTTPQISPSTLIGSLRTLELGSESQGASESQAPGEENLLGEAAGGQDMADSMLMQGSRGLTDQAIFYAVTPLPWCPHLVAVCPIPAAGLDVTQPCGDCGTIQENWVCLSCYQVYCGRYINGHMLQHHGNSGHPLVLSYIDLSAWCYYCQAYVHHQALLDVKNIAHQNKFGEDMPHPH
The test is described as follows: HDAC6 enzyme inhibitory activity (HDAC-Glo I/II Assay kit). The format is biochemical. To be noted: 10 μM; wells without enzyme = 100% inhibition; read-out: HDAC6 inhibitory rate (%) (10 μM). In a few lines: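 Sf-9-derived GST-purified full-length HDAC6 + cpd, 60 min RT, 24 mM Tris pH 7.5/0.6 mM glutathione/0.01% Tween-20; add HDAC-Glo substrate-developer, 20 min RT; luminescence. No-enzyme = 100% inhibition.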
Regarding `COc1ccc(CN2Cc3ncc(-c4nnc(C(F)F)o4)cc3C2=O)cc1` [Example 332, 3-(5-(difluoromethyl)-1,3,4-oxadiazol-2-yl)-6-(4-methoxybenzyl)-6,7-dihydro-5H-pyrrolo[3,4-b]pyridin-5-one], the inhibition at 10 µM is 99%.

In the case of `O=C1c2cc(-c3nnc(C(F)F)o3)cnc2CN1Cc1ccc(Cl)cc1` [Example 333, 6-(4-chlorobenzyl)-3-(5-(difluoromethyl)-1,3,4-oxadiazol-2-yl)-6,7-dihydro-5H-pyrrolo[3,4-b]pyridin-5-one], the inhibition at 10 µM was 97%.

As for `O=C1c2cc(-c3nnc(C(F)F)o3)cnc2CN1Cc1ccc(C(F)(F)F)cc1` [Example 334, 3-(5-(difluoromethyl)-1,3,4-oxadiazol-2-yl)-6-(4-(trifluoromethyl)benzyl)-6,7-dihydro-5H-pyrrolo[3,4-b]pyridin-5-one], the inhibition at 10 µM was found to be 93%.

As to `O=C1c2cc(-c3nnc(C(F)F)o3)cnc2CN1Cc1ccc(OC(F)F)cc1` [Example 335], the inhibition at 10 µM was found to be 101%.

Regarding `O=C1c2cc(-c3nnc(C(F)F)o3)cc(F)c2CN1C[C@@H]1CCCN1S(=O)(=O)C1CC1` [Example 336, 2-(((2S)-1-(cyclopropyl-sulfonyl)pyrrolidin-2-yl)methyl)-6-(5-(difluoromethyl)-1,3,4-oxadiazol-2-yl)-4-fluoroisoindolin-1-one], the inhibition at 10 µM was 102%.

With `O=C1c2cc(-c3nnc(C(F)F)o3)ccc2CN1[C@@H]1CCCC[C@H]1N(C(=O)C(F)F)c1ccccn1` [Example 337, N-((1R,2R)-2-(6-(5-(difluoromethyl)-1,3,4-oxadiazol-2-yl)-1-oxo-1,3-dihydro-2H-isoindol-2-yl)-cyclohexyl)-2,2-difluoro-N-(pyridin-2-yl)acetamide], the inhibition at 10 µM was 101%.

Turning to `O=C1c2cc(-c3nnc(C(F)F)o3)cnc2CN1Cc1ccc(F)c(F)c1` [Example 338, 6-(3,4-difluorobenzyl)-3-(5-(difluoromethyl)-1,3,4-oxadiazol-2-yl)-6,7-dihydro-5H-pyrrolo[3,4-b]pyridin-5-one], the inhibition at 10 µM stood at 97%.

Consider `O=C1c2cc(-c3nnc(C(F)F)o3)cnc2CN1Cc1ccccc1C(F)(F)F` [Example 339, 3-(5-(difluoromethyl)-1,3,4-oxadiazol-2-yl)-6-(2-(trifluoromethyl)benzyl)-6,7-dihydro-5H-pyrrolo[3,4-b]-pyridin-5-one], for which the inhibition at 10 µM worked out at 96%.

`O=C1c2cc(-c3nnc(C(F)F)o3)cnc2CN1Cc1ccccc1Cl` [Example 340, 6-(2-chlorobenzyl)-3-(5-(difluoromethyl)-1,3,4-oxadiazol-2-yl)-6,7-dihydro-5H-pyrrolo[3,4-b]pyridin-5-one]: the inhibition at 10 µM was 96%.

As to `CC(C)(C)OC(=O)NCC1(N2Cc3c(F)cc(-c4nnc(C(F)F)o4)cc3C2=O)CCCCC1` [Example 341, tert-butyl ((1-(6-(5-(difluoromethyl)-1,3,4-oxadiazol-2-yl)-4-fluoro-1-oxo-1,3-dihydro-2H-isoindol-2-yl)cyclohexyl)-methyl)carbamate], the inhibition at 10 µM was determined as 82%.

Take `O=C1c2cc(-c3nnc(C(F)F)o3)cnc2CN1Cc1cccc(Cl)c1` [Example 342, 6-(3-chlorobenzyl)-3-(5-(difluoromethyl)-1,3,4,- oxadiazol-2-yl)-6,7-dihydro-5H-pyrrolo[3,4-b]pyridin-5-one]: the inhibition at 10 µM was found to be 100%.

For `O=C1c2cc(-c3nnc(C(F)F)o3)cc(F)c2CN1C[C@@H]1CC(F)(F)CN1S(=O)(=O)C1CC1` [Example 343, 2-(((2S)-1-(cyclopropyl-sulfonyl)-4,4-difluoro-pyrrolidin-2-yl)methyl)-6-(5-(difluoromethyl)-1,3,4-oxadiazol-2-yl)-4-fluoroisoindolin-1-one], the inhibition at 10 µM worked out at 100%.
